By MIC is commonly meant the least concentration at which growth counts as inhibited. A lower MIC goes with greater potency.

The text below walks through data of ChEMBL document CHEMBL3297659, “Discovery, isolation, and structure elucidation of dretamycin” (J Nat Prod, 2014).

SMILES strings stand for the structures. Activity calls are given as the source filed them. The calls are words filed in the database; no cut-off is given here.

The subject of series [1] is Aspergillus fumigatus. The series is described as follows: Antifungal activity against Aspergillus fumigatus. Format: functional.
Series [2] has as its system Saccharomyces cerevisiae. Nature of the series: Antifungal activity against Saccharomyces cerevisiae. Format: functional.
A short description of series [3]: Stability in aqueous solution at below pH 7.0. Format: physicochemical. Conditions: buffer.
Series [4] concerns Candida. The series is described as follows: Antifungal activity against Candida spp. Format: functional.
Series [5] deals with Candida albicans. Nature of the series: Antifungal activity against Candida albicans expressing DRE-2 heterozygous mutant assessed as clear zone of inhibition by agar diffusion method. Format: functional, organism-based. For orientation: A growth-free zone around the sample is the usual read-out of agar diffusion tests.
Series [6] concerns Candida albicans. Nature of the series: Antifungal activity against Candida albicans expressing DRE-2 heterozygous mutant. Format: functional, organism-based.
In series [7] the test system is Candida albicans. The series is described as follows: Antifungal activity against wild-type Candida albicans assessed as hazy zone of inhibition by agar diffusion assay. Format: functional, organism-based.
Series [8] relates to Candida albicans. The series is described as follows: Growth stimulation in Candida albicans expressing DIP5 heterozygous mutant. Format: functional, organism-based.

Turning to `NC(=O)C1=CN(O)C(C(=O)[O-])C1.[K+]` (stereo not drawn), the minimum inhibitory concentration (MIC) in series [1] and in series [2] was over 32 µg/mL throughout.
Regarding `NC(=O)C1=CN(O)C(C(=O)O)C1` (stereo not drawn) [listing 1 of 2 here], in series [3], the Stability entry is “Unstable”. Besides, in series [4], the MIC was over 8 µg/mL.
Turning to `NC(=O)C1=CN(O)C(C(=O)O)C1` (stereo not drawn) [listing 2 of 2 here], the “growth inhibition (GI)” value in series [5] and in series [7] was “Active” in each case. In addition, the result in series [6] and in series [8] was Active.
